Measured values from the NIST ThermoML archive (doi:10.1021/je0602418).
“And” between values parts separate entries of the source, which are not always exact repeats. Identical values can stand only once.

Details: for Critical pressure / Critical temperature: pulse heating method

COC(=O)CCCCCCC(=O)OC [dimethyl octanedioate]
Liquid, Transpiration method
Details	vapor or sublimation pressure [kPa]
293.3 K	0.00062
295.3 K	0.00077
298.3 K	0.00105
303.2 K	0.00169
308.3 K	0.00273
313.2 K	0.00451
318.1 K	0.00698
323.1 K	0.01107
328.1 K	0.01684
333.1 K	0.02524
338.1 K	0.03923
343 K	0.05566
348.1 K	0.08123
352.1 K	0.1083

Liquid
Details	Critical pressure [kPa]	Critical temperature [K]
–	2300	723

COC(=O)CCCC(=O)OC [dimethyl pentanedioate]
Liquid
Details	vapor or sublimation pressure
283.7 K	0.00275 kPa
286.3 K	0.00357 kPa
288.4 K	0.0043 kPa
290.5 K	0.00564 kPa
293.2 K	0.00758 kPa
293.3 K	0.00747 kPa
295.6 K	0.00958 kPa
296.2 K	0.00984 kPa
298.2 K	0.01214 kPa
298.4 K	0.01204 kPa
300.3 K	0.01479 kPa
303.2 K	0.01881 kPa
303.3 K	0.0193 kPa
305.4 K	0.02301 kPa
306.2 K	0.02388 kPa
308.2 K	0.02904 kPa
309.2 K	0.03102 kPa
310.2 K	0.03348 kPa
312.1 K	0.03995 kPa
313.2 K	0.04146 kPa
313.5 K	0.04323 kPa
315.2 K	0.05031 kPa
315.5 K	0.05126 kPa
316.2 K	0.05285 kPa
318.1 K	0.06049 kPa
318.3 K	0.06276 kPa
319.2 K	0.0664 kPa
320.2 K	0.07343 kPa
320.3 K	0.06968 kPa
321.4 K	0.07692 kPa
323.2 K	0.09072 kPa
323.3 K	0.08542 kPa and 0.09398 kPa
325.2 K	0.1033 kPa and 0.1021 kPa
327.1 K	0.1263 kPa
328.3 K	0.1276 kPa
329.2 K	0.148 kPa
330.2 K	0.1428 kPa
331.3 K	0.1646 kPa
333.1 K	0.1752 kPa
333.2 K	0.1798 kPa
335.3 K	0.1977 kPa and 0.2051 kPa
338.3 K	0.2474 kPa and 0.2598 kPa
340.2 K	0.2719 kPa
341.3 K	0.3017 kPa
343.1 K	0.3382 kPa
343.2 K	0.3425 kPa
345.2 K	0.3651 kPa
348.1 K	0.4368 kPa

Liquid
Details	Critical pressure [kPa]	Critical temperature [K]
–	2770	682

COC(=O)CCC(=O)OC [dimethyl 1,4-butanedioate]
Liquid, Transpiration method
Details	vapor or sublimation pressure [kPa]
286.4 K	0.01062
289.4 K	0.01389
292.3 K	0.01793
295.2 K	0.02339
298.1 K	0.0292
301.1 K	0.03798
304.2 K	0.04988
307.2 K	0.06242
310.2 K	0.07685
313.2 K	0.09759
316.2 K	0.1187
319.2 K	0.1462
322.3 K	0.1846
325.3 K	0.2206
328.3 K	0.2686
331.4 K	0.3232
334.5 K	0.395
337.5 K	0.4891
340.6 K	0.6151

Liquid
Details	Critical pressure [kPa]	Critical temperature [K]
–	3060	662

COC(=O)C(=O)OC [dimethyl ethanedioate]
Transpiration method
Details	vapor or sublimation pressure [kPa]
293.3 K, Crystal	0.04995
296.3 K, Crystal	0.06801
298.2 K, Crystal	0.07959
301.2 K, Crystal	0.1046
303.2 K, Crystal	0.1298
306.2 K, Crystal	0.178
308.2 K, Crystal	0.2104
311.2 K, Crystal	0.2873
313.2 K, Crystal	0.3372
316.2 K, Crystal	0.4466
318.3 K, Crystal	0.5545
319.2 K, Crystal	0.6006
321.2 K, Crystal	0.7191
325.3 K, Crystal	0.9657
330.4 K, Liquid	1.399
333.2 K, Liquid	1.612
335.2 K, Liquid	1.819
337.2 K, Liquid	2.022
340.3 K, Liquid	2.395
343.2 K, Liquid	2.841
345.3 K, Liquid	3.144
346.2 K, Liquid	3.25
349.2 K, Liquid	3.905
350.4 K, Liquid	4.141
352.2 K, Liquid	4.479
355.5 K, Liquid	5.325
357.2 K, Liquid	5.707
359.2 K, Liquid	6.28
360.6 K, Liquid	6.526
362.2 K, Liquid	7.181
365.2 K, Liquid	8.422

Liquid
Details	Critical pressure [kPa]	Critical temperature [K]
–	4060	639

COC(=O)CC(=O)OC [dimethyl 1,3-propanedioate]
Liquid, Transpiration method
Details	vapor or sublimation pressure [kPa]
278.2 K	0.0117
281.2 K	0.01507
284.3 K	0.01969
287.2 K	0.02593
290.8 K	0.03523
293.2 K	0.04253
296.1 K	0.0533
298 K	0.06386
299.4 K	0.06974
302.2 K	0.08729
303.3 K	0.09423
305.3 K	0.1063
308.4 K	0.1313
311.2 K	0.165
314.3 K	0.2046

Liquid
Details	Critical pressure [kPa]	Critical temperature [K]
–	3530	649

COC(=O)CCCCCC(=O)OC [dimethyl 1,7-heptanedioate]
Liquid, Transpiration method
Details	vapor or sublimation pressure [kPa]
291.3 K	0.0013
293.3 K	0.00161
298.3 K	0.00264
303.2 K	0.00423
308.2 K	0.00693
313.2 K	0.01073
318.2 K	0.01734
323.2 K	0.02558
328.2 K	0.03778
333.1 K	0.0547
338.2 K	0.0784
343.2 K	0.1123
348.1 K	0.1618
353.1 K	0.2251

Liquid
Details	Critical pressure [kPa]	Critical temperature [K]
–	2370	711

COC(=O)CCCCC(=O)OC [dimethyl 1,6-hexanedioate]
Liquid
Details	vapor or sublimation pressure
294.2 K	0.00284 kPa
297.1 K	0.00356 kPa
297.4 K	0.00377 kPa
298.1 K	0.00391 kPa
300.6 K	0.00505 kPa
303.1 K	0.00619 kPa
303.3 K	0.00649 kPa
305.4 K	0.00775 kPa
308.1 K	0.00948 kPa and 0.00946 kPa
311.6 K	0.01308 kPa
313.2 K	0.01501 kPa
314.4 K	0.01648 kPa
317.2 K	0.02059 kPa
318.2 K	0.02254 kPa
318.5 K	0.02198 kPa
320.2 K	0.02543 kPa
323.3 K	0.03244 kPa
323.4 K	0.03434 kPa
326.2 K	0.03996 kPa
328.3 K	0.05027 kPa
332.2 K	0.06088 kPa
333.2 K	0.07135 kPa
334.3 K	0.07203 kPa
337.4 K	0.08819 kPa
338.5 K	0.1013 kPa and 0.1038 kPa
340.2 K	0.1114 kPa
343.5 K	0.1393 kPa and 0.1369 kPa
348.5 K	0.1893 kPa
348.6 K	0.2004 kPa
351.7 K	0.2406 kPa
353.6 K	0.2604 kPa
358.6 K	0.3551 kPa and 0.3732 kPa
361.7 K	0.446 kPa
363.7 K	0.4731 kPa
368.7 K	0.6312 kPa and 0.676 kPa
369.7 K	0.6863 kPa
373.8 K	0.8347 kPa and 0.8876 kPa

Liquid
Details	Critical pressure [kPa]	Critical temperature [K]
–	2500	692

COC(=O)CCCCCCCC(=O)OC [dimethyl nonanedioate]
Liquid
Details	vapor or sublimation pressure
298.1 K	0.00019 kPa
303.1 K	0.00028 kPa
308.1 K	0.00054 kPa
313.2 K	0.0008 kPa and 0.00084 kPa
318.2 K	0.00138 kPa and 0.00131 kPa
320.2 K	0.00167 kPa and 0.00164 kPa
323.3 K	0.00226 kPa
323.4 K	0.00228 kPa
325.3 K	0.00278 kPa
328.3 K	0.00335 kPa and 0.00362 kPa
330.8 K	0.00466 kPa
333.4 K	0.00549 kPa and 0.00561 kPa
335.9 K	0.00711 kPa
338.4 K	0.00771 kPa and 0.00858 kPa
341 K	0.01011 kPa
343.4 K	0.01171 kPa
343.8 K	0.01311 kPa
348.5 K	0.01757 kPa
348.6 K	0.0185 kPa
351.1 K	0.02169 kPa
353.6 K	0.02548 kPa and 0.02436 kPa and 0.02518 kPa
358.6 K	0.03663 kPa
358.7 K	0.03635 kPa
360.2 K	0.04123 kPa
363.7 K	0.05391 kPa and 0.05451 kPa
366.2 K	0.0656 kPa
368.9 K	0.07601 kPa and 0.08031 kPa
371.3 K	0.08918 kPa and 0.08695 kPa
373.8 K	0.1016 kPa and 0.1065 kPa

COC(=O)CCCCCCCCC(=O)OC [dimethyl sebacate]
Liquid
Details	vapor or sublimation pressure [kPa]
304.1 K	0.00014
308.1 K	0.0002
313.2 K	0.00036
318.2 K	0.00059
323.4 K	0.00101
328.3 K	0.00162
333.4 K	0.0025
338.4 K	0.00388
343.5 K	0.00594
348.2 K	0.00839
353.6 K	0.01405
355.6 K	0.01486
358.6 K	0.01849
363.7 K	0.02808
368.8 K	0.03965
373.8 K	0.05473

Liquid
Details	Critical pressure [kPa]	Critical temperature [K]
–	2080	742
